Molecules are shown by their SMILES. Starred links: 1 amine or outer side, 2 acyl side, 3 side chain; linkers in the order of their positions; H or OH if unused. Non-standard residues stand in square brackets, D forms with d. Residues, ends and D or L forms follow the SMILES beside them. X1 = O=C(O)[C@@H]1Cc2ccccc2CN1[C@H](N[*:1])C(=O)[*:2]; 2Thi = N[C@@H](Cc1cccs1)C(=O)O; Cha = N[C@@H](CC1CCCCC1)C(=O)O; Cit = NC(=O)NCCC[C@H](N)C(=O)O; Phg = N[C@H](C(=O)O)c1ccccc1; Tle = CC(C)(C)[C@H](N)C(=O)O; Abu = CC[C@H](N)C(=O)O

For the test, the target named is Beta-secretase 1 (Homo sapiens) (UniProt P56817). Briefly: Activity of recombinant BACE assessed as retention time of substrate by HPLC method.
Chain of Beta-secretase 1 (Homo sapiens) (P56817 whole entry): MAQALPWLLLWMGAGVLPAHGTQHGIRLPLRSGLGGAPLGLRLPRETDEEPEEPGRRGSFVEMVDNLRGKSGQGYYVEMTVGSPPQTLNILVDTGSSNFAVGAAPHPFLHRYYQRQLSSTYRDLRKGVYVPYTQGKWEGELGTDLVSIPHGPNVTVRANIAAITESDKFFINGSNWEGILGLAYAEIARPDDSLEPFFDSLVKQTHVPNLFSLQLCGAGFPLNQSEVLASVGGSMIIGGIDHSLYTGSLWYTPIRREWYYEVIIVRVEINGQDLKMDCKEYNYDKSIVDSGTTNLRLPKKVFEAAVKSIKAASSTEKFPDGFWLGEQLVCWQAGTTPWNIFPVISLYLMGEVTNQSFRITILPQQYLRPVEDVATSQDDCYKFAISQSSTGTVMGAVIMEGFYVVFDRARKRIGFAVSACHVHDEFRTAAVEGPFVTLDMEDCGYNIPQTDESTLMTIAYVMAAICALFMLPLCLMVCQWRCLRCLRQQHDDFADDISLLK
Regarding `CC[C@H](C)[C@H](N)C(=O)N[C@@H](CO)C(=O)N[C@@H](CC(=O)O)C(=O)N[C@H](C(=O)N[C@@H](CC(N)=O)C(=O)N[C@@H](CC(C)C)C(=O)N[C@@H](CC(=O)O)C(=O)N[C@@H](C)C(=O)N[C@@H](CCC(=O)O)C(=O)N[C@@H](Cc1ccccc1)C(=O)N[C@@H](CCCNC(=N)N)C(=O)N[C@@H](Cc1cnc[nH]1)C(N)=O)C(C)C` (H-ISDVNLDAEFRH-NH2), the retention time came out at 0.474 h.
The figure for `CC[C@H](C)[C@H](N)C(=O)N[C@@H](CO)C(=O)N[C@@H](CCC(=O)O)C(=O)N[C@@H](CCC(=O)O)C(=O)N[C@@H](CC(N)=O)C(=O)N[C@@H](CC(C)C)C(=O)N[C@@H](CC(=O)O)C(=O)N[C@@H](C)C(=O)N[C@@H](CCC(=O)O)C(=O)N[C@@H](Cc1ccccc1)C(=O)N[C@@H](CCCNC(=N)N)C(=O)N[C@@H](Cc1cnc[nH]1)C(N)=O` (H-ISEENLDAEFRH-NH2) is 0.457 h; for `CC[C@H](C)[C@H](N)C(=O)N[C@@H](CO)C(=O)N[C@@H](CCC(=O)O)C(=O)N[C@H](C(=O)N[C@@H](Cc1cccs1)C(=O)N[C@@H](Cc1cccs1)C(=O)O)[C@@H](C)CC` (H-ISEI[2Thi][2Thi]-OH) it is 0.63 h.
The figure for `CC[C@H](C)[C@H](N)C(=O)N[C@@H](CO)C(=O)N[C@@H](CCC(=O)O)C(=O)N[C@H](C(=O)N[C@@H](Cc1ccccc1)C(=O)N[C@@H](CC(C)C)C(=O)N[C@@H](CC(=O)O)C(=O)N[C@@H](C)C(=O)N[C@@H](CCC(=O)O)C(=O)N[C@@H](Cc1ccccc1)C(=O)N[C@@H](CCCNC(=N)N)C(=O)N[C@@H](Cc1cnc[nH]1)C(N)=O)C(C)C` (H-ISEVFLDAEFRH-NH2) is 0.565 h.
The figure for `CC[C@H](C)[C@H](N)C(=O)N[C@@H](CO)C(=O)N[C@@H](CCC(=O)O)C(=O)N[C@H](C(=O)N[C@@H](CCCCN)C(=O)N[C@@H](CCSC)C(=O)N[C@@H](CC(=O)O)C(=O)N[C@@H](C)C(=O)N[C@@H](CCC(=O)O)C(=O)N[C@@H](Cc1ccccc1)C(=O)N[C@@H](CCCNC(=N)N)C(=O)N[C@@H](Cc1cnc[nH]1)C(N)=O)C(C)C` (H-ISEVKMDAEFRH-NH2) is 0.419 h; for `CC[C@H](C)[C@H](N)C(=O)N[C@@H](CO)C(=O)N[C@@H](CCC(=O)O)C(=O)N[C@H](C(=O)N[C@@H](CC(N)=O)C(=O)N[C@@H](CC(C)C)C(=O)N[C@@H](CCC(N)=O)C(=O)N[C@@H](C)C(=O)N[C@@H](CCC(=O)O)C(=O)N[C@@H](Cc1ccccc1)C(=O)N[C@@H](CCCNC(=N)N)C(=O)N[C@@H](Cc1cnc[nH]1)C(N)=O)C(C)C` (H-ISEVNLQAEFRH-NH2) it is 0.52 h.
As for `CC[C@H](C)[C@H](N)C(=O)N[C@@H](CO)C(=O)N[C@@H](CCC(=O)O)C(=O)N[C@H](C(=O)N[C@@H](CC(N)=O)C(=O)N[C@@H](CC(C)C)C(=O)N[C@@H](Cc1cccs1)C(=O)N[C@@H](C)C(=O)N[C@@H](CCC(=O)O)C(=O)N[C@@H](Cc1ccccc1)C(=O)N[C@@H](CCCNC(=N)N)C(=O)N[C@@H](Cc1cnc[nH]1)C(N)=O)C(C)C` (H-ISEVNL[2Thi]AEFRH-NH2), the retention time came to 0.656 h.
`CC[C@H](C)[C@H](N)C(=O)N[C@@H](CO)C(=O)N[C@@H](CCC(=O)O)C(=O)N[C@H](C(=O)N[C@@H](CC(N)=O)C(=O)N[C@@H](CC(C)C)C(=O)N[C@@H](CC1CCCCC1)C(=O)N[C@@H](C)C(=O)N[C@@H](CCC(=O)O)C(=O)N[C@@H](Cc1ccccc1)C(=O)N[C@@H](CCCNC(=N)N)C(=O)N[C@@H](Cc1cnc[nH]1)C(N)=O)C(C)C` (H-ISEVNL[Cha]AEFRH-NH2): the retention time was determined as 0.727 h.
The figure for `CC[C@H](C)[C@H](N)C(=O)N[C@@H](CO)C(=O)N[C@@H](CCC(=O)O)C(=O)N[C@H](C(=O)N[C@@H](CC(N)=O)C(=O)N[C@@H](CC(C)C)C(=O)N[C@@H](CCCNC(N)=O)C(=O)N[C@@H](C)C(=O)N[C@@H](CCC(=O)O)C(=O)N[C@@H](Cc1ccccc1)C(=O)N[C@@H](CCCNC(=N)N)C(=O)N[C@@H](Cc1cnc[nH]1)C(N)=O)C(C)C` (H-ISEVNL[Cit]AEFRH-NH2) is 0.536 h; for `CC[C@H](C)[C@H](N)C(=O)N[C@@H](CO)C(=O)N[C@@H](CCC(=O)O)C(=O)N[C@H](C(=O)N[C@@H](CC(N)=O)C(=O)N[C@@H](CC(C)C)C(=O)N[C@H](C(=O)N[C@@H](C)C(=O)N[C@@H](CCC(=O)O)C(=O)N[C@@H](Cc1ccccc1)C(=O)N[C@@H](CCCNC(=N)N)C(=O)N[C@@H](Cc1cnc[nH]1)C(N)=O)c1ccccc1)C(C)C` (H-ISEVNL[Phg]AEFRH-NH2) it is 0.617 h.
The figure for `CC[C@H](C)[C@H](N)C(=O)N[C@@H](CO)C(=O)N[C@@H](CCC(=O)O)C(=O)N[C@H](C(=O)N[C@@H](CC(N)=O)C(=O)N[C@@H](CC(C)C)C(=O)N[C@H](C(=O)N[C@@H](C)C(=O)N[C@@H](CCC(=O)O)C(=O)N[C@@H](Cc1ccccc1)C(=O)N[C@@H](CCCNC(=N)N)C(=O)N[C@@H](Cc1cnc[nH]1)C(N)=O)C(C)(C)C)C(C)C` (H-ISEVNL[Tle]AEFRH-NH2) is 0.629 h; for `CC[C@H](C)[C@H](N)C(=O)N[C@@H](CO)C(=O)N[C@@H](CCC(=O)O)C(=O)N[C@H](C(=O)N[C@@H](CC(N)=O)C(=O)N[C@@H](CC(C)C)C(=O)N[C@H](C(=O)N[C@@H](C)C(=O)N[C@@H](CCC(=O)O)C(=O)N[C@@H](Cc1ccccc1)C(=O)N[C@@H](CCCNC(=N)N)C(=O)N[C@@H](Cc1cnc[nH]1)C(N)=O)N1Cc2ccccc2C[C@H]1C(=O)O)C(C)C` (H-ISEVNL[X1]AEFRH-NH2) it is 0.648 h; for `CC[C@H](C)[C@H](N)C(=O)N[C@@H](CO)C(=O)N[C@@H](CCC(=O)O)C(=O)N[C@H](C(=O)N[C@@H](CC(N)=O)C(=O)N[C@@H](Cc1ccc(O)cc1)C(=O)N[C@@H](CC(=O)O)C(=O)N[C@@H](C)C(=O)N[C@@H](CCC(=O)O)C(=O)N[C@@H](Cc1ccccc1)C(=O)N[C@@H](CCCNC(=N)N)C(=O)N[C@@H](Cc1cnc[nH]1)C(N)=O)C(C)C` (H-ISEVNYDAEFRH-NH2) it is 0.42 h.
`CC[C@H](C)[C@H](N)C(=O)N[C@@H](CO)C(=O)N[C@@H](CCC(=O)O)C(=O)N[C@H](C(=O)N[C@@H](CC(N)=O)C(=O)N[C@H](C(=O)N[C@@H](CC(=O)O)C(=O)N[C@@H](C)C(=O)N[C@@H](CCC(=O)O)C(=O)N[C@@H](Cc1ccccc1)C(=O)N[C@@H](CCCNC(=N)N)C(=O)N[C@@H](Cc1cnc[nH]1)C(N)=O)N1Cc2ccccc2C[C@H]1C(=O)O)C(C)C` (H-ISEVN[X1]DAEFRH-NH2): the retention time was found to be 0.502 h.
Turning to `CC[C@H](NC(=O)[C@@H](NC(=O)[C@H](CCC(=O)O)NC(=O)[C@H](CO)NC(=O)[C@@H](N)[C@@H](C)CC)C(C)C)C(=O)N[C@@H](CC(C)C)C(=O)N[C@@H](CC(=O)O)C(=O)N[C@@H](C)C(=O)N[C@@H](CCC(=O)O)C(=O)N[C@@H](Cc1ccccc1)C(=O)N[C@@H](CCCNC(=N)N)C(=O)N[C@@H](Cc1cnc[nH]1)C(N)=O` (H-ISEV[Abu]LDAEFRH-NH2), the retention time was determined as 0.5 h.
With `CC[C@H](C)[C@H](N)C(=O)N[C@@H](CO)C(=O)N[C@@H](CCC(=O)O)C(=O)N[C@H](C(=O)N[C@@H](CC1CCCCC1)C(=O)N[C@@H](CC(C)C)C(=O)N[C@@H](CC(=O)O)C(=O)N[C@@H](C)C(=O)N[C@@H](CCC(=O)O)C(=O)N[C@@H](Cc1ccccc1)C(=O)N[C@@H](CCCNC(=N)N)C(=O)N[C@@H](Cc1cnc[nH]1)C(N)=O)C(C)C` (H-ISEV[Cha]LDAEFRH-NH2), the retention time was 0.616 h.

The values above are taken from ChEMBL document CHEMBL1773037, “Evaluation of superior BACE1 cleavage sequences containing unnatural amino acids” (Bioorg Med Chem, 2011).
